Starred links: 1 amine or outer side, 2 acyl side, 3 side chain; linkers in the order of their positions; H or OH if unused. Positions of bridges follow the written chain, without caps; N, C: chain ends. Non-standard residues stand in square brackets, D forms with d. Residues, ends and D or L forms follow the SMILES beside them. *: point of attachment. Leu(3R-OH,Nα-propionyl) = CCC(=O)N[C@H](C(=O)*)[C@H](O)C(C)C; X1 = CC(C)[C@@H](O[*:3])[C@H](N[*:1])C(=O)[*:2]; X2 = CC(C)[C@H](O[*:3])[C@@H](N[*:1])C(=O)[*:2]; NMeaThr = CN[C@H](C(=O)O)[C@H](C)O; dPhLac = O=C(O)[C@H](O)Cc1ccccc1; NMeA = CN[C@@H](C)C(=O)O; NMeDha = C=C(NC)C(=O)O
Experiments:
Gαi/q(R54K) [1] = assay type: cell-based; details: Gαi/q(R54K) vs Gαi/q
Gαi/q(R54K) [2] = molecular target: T1, Gαi/q(R54K) (Homo sapiens, UniProt P63096, C351G, form not given); assay type: cell-based; details: read-out: IC50, attenuation of cannabinoid type 1 receptor inhibition of forskolin-induced cAMP accumulation; via Gαi/q(R54K); Neuro2A cells; FIG. 2C
T1 construct: […]
T1 sequence (P63096 whole entry V50I/Y69F/V72L/K180P/V185I/T187Y/H188P/C351G, form open): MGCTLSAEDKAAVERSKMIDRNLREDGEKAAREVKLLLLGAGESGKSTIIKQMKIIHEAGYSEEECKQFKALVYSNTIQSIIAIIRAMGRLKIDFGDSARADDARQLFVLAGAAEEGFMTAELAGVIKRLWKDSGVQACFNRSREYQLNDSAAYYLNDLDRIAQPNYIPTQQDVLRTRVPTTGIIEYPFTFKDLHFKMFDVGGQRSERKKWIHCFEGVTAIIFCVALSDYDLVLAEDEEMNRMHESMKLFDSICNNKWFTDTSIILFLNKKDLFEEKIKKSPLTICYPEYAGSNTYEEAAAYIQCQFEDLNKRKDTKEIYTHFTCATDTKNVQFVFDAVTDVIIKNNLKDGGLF

92.1 UM cells = experiment: RNA-Seq global gene expression, FR vs vehicle; assay type: cell-based, Human; details: 92.1 cells, 100 nM FR, p<0.001
[3] = Retina structure (preliminary data)
Text: In this example we will determine whether FR has potential to provide vision sparing therapy for primary (ocular) UM tumors. […] Based on our preliminary studies of UM cells in culture, intravitreal injection might be therapeutically beneficial by inhibiting tumor growth, promoting apoptosis, and/or pushing tumor re-differentiation toward melanocytic phenotypes less likely to metastasize. […] Our second priority is to determine whether FR administered systemically could provide therapeutic benefit for metastatic UM tumors.

## C=C1C(=O)N[C@@H](C)C(=O)N(C)[C@@H](C)C(=O)N[C@H]([C@@H](OC(=O)[C@@H](NC(=O)CC)[C@H](O)C(C)C)C(C)C)C(=O)N(C)[C@@H]([C@H](C)OC)C(=O)O[C@H](C(C)C)[C@H](NC(C)=O)C(=O)O[C@H](Cc2ccccc2)C(=O)N1C [FR, [(1S)-1-[(3S,6R,9S,12S,18R,21S,22R)-21-acetamido-18-benzyl-3-[(1S)-1-methoxyethyl]-4,9,10,12,16-pentamethyl-15-methylidene-2,5,8,11,14,17,20-heptaoxo-22-propan-2-yl-1,19-dioxa-4,7,10,13,16-pentazacyclodocos-6-yl]-2-methylpropyl] (2S,3R)-3-hydroxy-4-methyl-2-(propanoylamino)pentanoate] (Ac-[X1][dPhLac][NMeDha]A[NMeA][X2](Leu(3R-OH,Nα-propionyl))[NMeaThr](Me); ester 1-C)
Gαi/q(R54K) [1]
  fold less potent than toward Gαi/q, cAMP signaling: ~30 fold
Gαi/q(R54K) [2]
  IC50: ~800 nM
92.1 UM cells
  BBC3/PUMA expression decrease: 3.5 fold
  PMAIP1/NOXA expression decrease: 2.5 fold
  p21CIP1 (CDKN1A) expression, down: 3.0 fold
[3]
  retina structure: preserves retina structure

— patent publication US20230130103A1, “TARGETED PHARMACOLOGICAL THERAPEUTICS IN UVEAL MELANOMA” (Washington University, priority 2017, published 2023)
